Patent US7510845B2, “Assay employing G protein-coupled receptor expressed in dorsal root ganglia” (California Institute of Technology, priority 2000, dated 2009)
pEC50: −log10 of the molar value. “Also recorded” adds a separate entry of the source. Ends that are not written are not given here.

How the values were obtained:
[1] = system: MAS1; experiment: Intracellular Ca2+ release assay (Fura-2), MAS1 in HEK-Gα15 cells; format: cell-based; details: for Activation of MAS1: HEK-Gα15 cells
[2] = molecular target: T1, MRGA1 (Mus musculus, UniProt Q91WW5); experiment: Intracellular Ca2+ release assay (Fura-2), MRGA1-GFP in HEK-Gα15 cells; format: cell-based; details: for Calcium response of MRGA1-expressing cells to ligand: HEK-Gα15 cells, ligand 1 μM; for Activation of MrgA1 in dose-response experiments: HEK cells expressing Gα15
T1 construct: cDNAs encoding eight full-length variants of Mrg receptors (mMrgA1-8) are provided; expressed in transfected cells; host or cells: HEK293-Galpha15 (A1) or HEK293 lacking Galpha15 (A4), transient transfection with FuGENE 6
T1 sequence (Q91WW5 1-304): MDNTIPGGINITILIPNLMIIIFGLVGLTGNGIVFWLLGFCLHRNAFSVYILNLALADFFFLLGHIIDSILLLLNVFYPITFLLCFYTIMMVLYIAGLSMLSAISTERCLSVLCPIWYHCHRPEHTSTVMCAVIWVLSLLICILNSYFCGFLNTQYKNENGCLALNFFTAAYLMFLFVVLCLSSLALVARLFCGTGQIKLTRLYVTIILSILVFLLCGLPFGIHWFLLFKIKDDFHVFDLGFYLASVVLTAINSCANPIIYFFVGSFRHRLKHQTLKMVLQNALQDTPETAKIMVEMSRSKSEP
Experimental: (§1) To identify ligands for the Mrg receptors, selected MrgA genes were tested in a calcium release assay. MrgA genes, including MrgA1 and MrgA4, were cloned into a eukaryotic expression vector and transfected into human embryonic kidney (HEK) 293 cells. HEK-293 cells were obtained from the ATCC and cultured in DMEM supplemented with 10% fetal bovine serum. An HEK293-Gα15 cell line stably expressing Gα15 was provided by Aurora Biosciences Corporation and grown on Matrigel™ (growth factor reduced Matrigel, Becton Dickinson, diluted 1:200 with serum-free DMEM)-coated flasks and maintained at 37° C. in DMEM (GibcoBRL) supplemented with 10% heat-inactivated fetal bovine serum, 2 mM L-glutamine, 0.1 mM non-essential amino acids, 1 mM sodium pyruvate, 25 mM HEPES and 3 μg/ml blastcidin-S. For transfection, cells were seeded on Matrigel-coated 35 mm glass-bottom dishes (Bioptech Inc., Butler, Pa.). After 16-24 hr, cells were transfected using FuGENE 6 (Roche).
To increase the sensitivity of the calcium release assay, in some experiments the MRGA-GFP fusion proteins were expressed in HEK 293 cells modified to express Gα15, which couples GPCRs to a signal transduction pathway leading to the release of intracellular free Ca^2+ (Offermann and Simon J Biol Chem 270: 15175-80 (1995)). This calcium release can be monitored ratiometrically using Fura-2 as a fluorescent indicator dye (Tsien et al. Cell Calcium 6: 145-57 (1985)) (FIGS. 11A-C). This heterologous expression system has been previously used to identify ligands for taste receptors (Chandrashekar et al. Cell 100: 703-11 (2000)).
(§2) Briefly, transfected cells were washed once in Hank's balanced salt solution with 11 mM D-glucose and 10 mM HEPES, pH 7.4 (assay buffer) and loaded with 2 μM Fura-2 AM (Molecular Probes) at room temperature for 90 min, with rotation. Loaded cells were washed twice with assay buffer and placed on a micro-perfusion chamber (Bioptech). The chamber was mounted on top of a Olympus IMT2 inverted microscope, and imaged with an Olympus DPlanApo 40× oil immersion objective lens. Samples were illuminated by a 75 W xenon bulb, and a computer-controlled filter changer (Lambda-10; Shutter Instruments) was used to switch the excitation wavelength. A cooled CCD camera (Photometric) was used in detecting fluorescence. GFP-positive cells within a field were identified using an excitation wavelength of 400 nm, a dichroic 505 nm long-pass filter and an emitter bandpass of 535 nm (Chroma Technology). In the same field, calcium measurements were performed at an excitation wavelength of 340 nm and 380 nm, and an emission wavelength of 510 nm. Agonists were diluted in assay buffer and solution changes accomplished by micro-perfusion pump (Bioptech). Fura-2 fluorescence signals (340 nm, 380 nm and the 340/380 ratio) originating from GFP-positive cells were continuously monitored at 0.4- or 1-second intervals and collected using Axon Imaging Workbench 4.0 software (Axon). Instrument calibration was carried out with standard calcium solutions (Molecular probes) in glass bottom dishes (MatTek Corp.).

[3] = molecular target: T2, MRGA4 (Mus musculus, UniProt Q91WW2, A204G); experiment: Intracellular Ca2+ release assay, MRGA4 in HEK cells lacking Gα15; format: cell-based; details: ligand 1 μM
T2 construct: cDNAs encoding eight full-length variants of Mrg receptors (mMrgA1-8) are provided; expressed in transfected cells; host or cells: HEK293-Galpha15 (A2) or HEK293 lacking Galpha15 (A5), transient transfection with FuGENE 6
T2 sequence (Q91WW2 9-313 A204G limits assumed): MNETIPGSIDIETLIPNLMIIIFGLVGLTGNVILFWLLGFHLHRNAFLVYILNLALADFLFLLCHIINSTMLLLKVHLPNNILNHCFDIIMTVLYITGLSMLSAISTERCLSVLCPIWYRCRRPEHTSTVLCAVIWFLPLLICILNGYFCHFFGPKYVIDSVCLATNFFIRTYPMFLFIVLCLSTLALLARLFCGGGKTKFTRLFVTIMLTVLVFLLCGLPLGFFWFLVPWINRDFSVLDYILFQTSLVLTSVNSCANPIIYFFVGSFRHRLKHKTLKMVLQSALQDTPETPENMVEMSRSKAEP
Experimental: as §1, with “(Roche). Transfection efficiencies were estimated by visualization of GFP fused to the C-terminus of MrgA1 and A4, and were typically >60%. Fusing GFP to the C-termini of the MrgA coding sequences additionally allowed for visual confirmation of the intracellular distribution of the receptors and their membrane integration in the transfected cells (FIG. 11D).” for “(Roche).”
as §2, with “Corp.). […]” for “Corp.).”

[4] = molecular target: T1, MRGA1; experiment: Intracellular Ca2+ release assay, MRGA1 in HEK cells lacking Gα15; format: cell-based; details: ligand 1 μM
Experimental: as §1, with “(Roche). Transfection efficiencies were estimated by visualization of GFP fused to the C-terminus of MrgA1 and A4, and were typically >60%. Fusing GFP to the C-termini of the MrgA coding sequences additionally allowed for visual confirmation of the intracellular distribution of the receptors and their membrane integration in the transfected cells (FIG. 11D).” for “(Roche).”
as §2, with “Corp.). […]” for “Corp.).”

[5] = system: chronic pain models, including neuropathic pain; details: intrathecal injection; several chronic pain models; cited from earlier work
[6] = molecular target: T2, MRGA4; experiment: Intracellular Ca2+ release assay (Fura-2), MRGA4-GFP in HEK-Gα15 cells; format: cell-based; details: HEK cells expressing Gα15
Experimental: To identify ligands for the Mrg receptors, selected MrgA genes were tested in a calcium release assay. MrgA genes, including MrgA1 and MrgA4, were cloned into a eukaryotic expression vector and transfected into human embryonic kidney (HEK) 293 cells. HEK-293 cells were obtained from the ATCC and cultured in DMEM supplemented with 10% fetal bovine serum. […]
To increase the sensitivity of the calcium release assay, in some experiments the MRGA-GFP fusion proteins were expressed in HEK 293 cells modified to express Gα15, which couples GPCRs to a signal transduction pathway leading to the release of intracellular free Ca^2+ (Offermann and Simon J Biol Chem 270: 15175-80 (1995)). This calcium release can be monitored ratiometrically using Fura-2 as a fluorescent indicator dye (Tsien et al. Cell Calcium 6: 145-57 (1985)) (FIGS. 11A-C). […]
Briefly, transfected cells were washed once in Hank's balanced salt solution with 11 mM D-glucose and 10 mM HEPES, pH 7.4 (assay buffer) and loaded with 2 μM Fura-2 AM (Molecular Probes) at room temperature for 90 min, with rotation. […] A cooled CCD camera (Photometric) was used in detecting fluorescence. […] Fura-2 fluorescence signals (340 nm, 380 nm and the 340/380 ratio) originating from GFP-positive cells were continuously monitored at 0.4- or 1-second intervals and collected using Axon Imaging Workbench 4.0 software (Axon). […]

Angiotensin II: peptide hormone previously reported to activate MAS1 (DRVYIHPF; Angiotensin-2; UniProt P01019 25-32, looked up)
Activation of MAS1 [1]: No response was detected

Angiotensin I: peptide hormone previously reported to activate MAS1 (DRVYIHPFHL; Angiotensin-1; UniProt P01019 25-34, looked up)
Activation of MAS1 [1]: No response was detected

CCCCC[C@H](O)/C=C/[C@H]1[C@H](O)CC(=O)[C@@H]1CCCCCCC(=O)O [Prostaglandin-E1]
Calcium response of MRGA1-expressing cells to ligand [2]: only very weakly activated

AGEGLNSQFWSLAAPQRF-NH2 [NPAF]
Calcium response of MRGA4-expressing cells to ligand [3]: respond
Activation of MrgA1 in dose-response experiments [2]: much less effective
Calcium response of MRGA1-expressing cells to ligand [2]: significantly lower
Calcium response of MRGA1-expressing cells to ligand [4]: no response
Antinociceptive effect [5]: long-lasting antinociceptive effects
pEC50 ([1]; HEK cells, RF-amide ligands, read-out: Relative efficacy of activation of MAS1): < 6.00
Activation of MAS1 [1]: did not respond well

CCCCC/C=C\C/C=C\C/C=C\C/C=C\CCCC(=O)O [Arachidonic Acid]
Calcium response of MRGA1-expressing cells to ligand [2]: only very weakly activated

RFRP-2: RFamide ligand produced from a different precursor (SAGATANLPLRS; ends and bridges not checked; UniProt Q9HCQ7 101-112, looked up)
Activation of MrgA4 in dose-response experiments [6]: Neither receptor showed strong activation
Activation of MrgA1 in dose-response experiments [2]: Neither receptor showed strong activation

CGRP-II: neuropeptide, calcitonin gene-related peptide
Calcium response of MRGA4-expressing cells to ligand [3]: considerably diminished
Calcium response of MRGA1-expressing cells to ligand [2]: some level of activation; also recorded: strongest responses
Calcium response of MRGA1-expressing cells to ligand [4]: considerably diminished

Phe-Met-Arg-Phe-amide [FMRFamide]
Calcium response of MRGA1-expressing cells to ligand [2]: most efficient responses
Calcium response of MRGA1-expressing cells to ligand ([2]; listed as FMRF): strongest responses

neurokinin B: peptide hormone
Calcium response of MRGA1-expressing cells to ligand [2]: did not activate

NPY: neuropeptide
Calcium response of MRGA4-expressing cells to ligand [3]: lost completely
Calcium response of MRGA1-expressing cells to ligand [2]: some level of activation; also recorded: strongest responses
Calcium response of MRGA1-expressing cells to ligand [4]: lost completely

neurokinin A: peptide hormone
Calcium response of MRGA1-expressing cells to ligand [2]: did not activate

schistoFLRF: RFamide ligand, SEQ ID NO: 115 (PDVDHVFLRF; ends and bridges not checked)
Calcium response of MRGA1-expressing cells to ligand [2]: weakly activated

SYSMEHFRWGKPVGKKRRPVKVYPNGAEDESAEAFPLEF [ACTH]
Calcium response of MRGA4-expressing cells to ligand [3]: considerably diminished
Calcium response of MRGA1-expressing cells to ligand [2]: some level of activation; also recorded: strongest responses
Calcium response of MRGA1-expressing cells to ligand [4]: considerably diminished
Activation of MAS1 [1]: Nor did MAS1 respond

RFRP-1: RFamide ligand produced from a different precursor (MPHSFANLPLRF; ends and bridges not checked; UniProt Q9HCQ7 81-92, looked up)
Activation of MrgA4 in dose-response experiments [6]: Neither receptor showed strong activation
Activation of MrgA1 in dose-response experiments [2]: Neither receptor showed strong activation
